The results in this text go back to ChEMBL document CHEMBL6074678, “Selectively Antagonizing the NOD1-Mediated Inflammatory Signaling Pathway Mitigates the Gastric Inflammation Induced by Helicobacter pylori Infection” (J Med Chem, 2024).

In series [1] the target is T1, Nucleotide-binding oligomerization domain-containing protein 1 (Homo sapiens) (UniProt Q9Y239).
T1 sequence (whole entry): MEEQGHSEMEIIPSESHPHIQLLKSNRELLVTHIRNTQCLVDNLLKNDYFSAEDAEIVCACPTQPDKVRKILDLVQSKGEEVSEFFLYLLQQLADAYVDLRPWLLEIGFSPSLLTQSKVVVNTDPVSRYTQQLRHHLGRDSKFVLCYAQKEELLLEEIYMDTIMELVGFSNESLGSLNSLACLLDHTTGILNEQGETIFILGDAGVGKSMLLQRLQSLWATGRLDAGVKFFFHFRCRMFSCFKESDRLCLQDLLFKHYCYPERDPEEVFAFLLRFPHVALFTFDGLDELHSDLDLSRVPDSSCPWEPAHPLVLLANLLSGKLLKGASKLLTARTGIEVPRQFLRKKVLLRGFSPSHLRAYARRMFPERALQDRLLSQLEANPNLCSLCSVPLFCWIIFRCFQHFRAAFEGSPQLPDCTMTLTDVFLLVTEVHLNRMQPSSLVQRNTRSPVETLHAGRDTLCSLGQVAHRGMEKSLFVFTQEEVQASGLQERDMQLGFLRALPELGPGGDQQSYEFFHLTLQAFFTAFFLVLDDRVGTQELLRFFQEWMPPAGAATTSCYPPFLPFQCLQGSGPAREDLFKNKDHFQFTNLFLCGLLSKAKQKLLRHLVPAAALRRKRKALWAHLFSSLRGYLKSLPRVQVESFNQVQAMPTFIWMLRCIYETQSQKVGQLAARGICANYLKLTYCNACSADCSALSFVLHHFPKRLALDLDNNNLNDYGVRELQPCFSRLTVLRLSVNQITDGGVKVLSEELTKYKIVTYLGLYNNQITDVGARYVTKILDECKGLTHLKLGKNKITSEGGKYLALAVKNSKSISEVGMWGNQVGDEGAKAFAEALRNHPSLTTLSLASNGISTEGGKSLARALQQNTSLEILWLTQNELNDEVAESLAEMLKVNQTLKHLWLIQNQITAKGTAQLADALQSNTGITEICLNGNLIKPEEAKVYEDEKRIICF
In words: Antagonist activity at human NOD1 expressed in HEK-Blue cells assessed as decrease in SEAP secretion incubated for 3 hrs followed by C12-iE-DAP stimulation for 20 hrs by spectrophotometry. It is filed as cell-based. Particulars: HEK-Blue hNOD1, filed as antagonist, time 23.0 hrs.

The target in series [2] is T2, Nucleotide-binding oligomerization domain-containing protein 1 (Homo sapiens, UniProt Q9Y239).
T2 sequence (Q9Y239 whole entry): T1 sequence (whole entry)
In words: Antagonist activity at human NOD1 expressed in HEK293 cells assessed as decrease in NF-kappaB activation. It is filed as cell-based.

For series [3], the target named is T1, Nucleotide-binding oligomerization domain-containing protein 1 (Homo sapiens). In words: Antagonist activity at NOD1 in human THP-1 cells assessed as decrease in phosphorylated JNK level at 0.1 to 1 uM incubated for 1 hr followed by C12-iE-DAP stimulation for 30 mins by Western blot analysis. It is filed as cell-based. Particulars: filed as antagonist, dose 0.1-1 µM, time 1.5 hrs. (Immunoblotting shows a protein as a band on a membrane.)

For series [4], the target named is T3, Nucleotide-binding oligomerization domain-containing protein 1 (Mus musculus) (UniProt Q8BHB0).
T3 sequence (whole entry): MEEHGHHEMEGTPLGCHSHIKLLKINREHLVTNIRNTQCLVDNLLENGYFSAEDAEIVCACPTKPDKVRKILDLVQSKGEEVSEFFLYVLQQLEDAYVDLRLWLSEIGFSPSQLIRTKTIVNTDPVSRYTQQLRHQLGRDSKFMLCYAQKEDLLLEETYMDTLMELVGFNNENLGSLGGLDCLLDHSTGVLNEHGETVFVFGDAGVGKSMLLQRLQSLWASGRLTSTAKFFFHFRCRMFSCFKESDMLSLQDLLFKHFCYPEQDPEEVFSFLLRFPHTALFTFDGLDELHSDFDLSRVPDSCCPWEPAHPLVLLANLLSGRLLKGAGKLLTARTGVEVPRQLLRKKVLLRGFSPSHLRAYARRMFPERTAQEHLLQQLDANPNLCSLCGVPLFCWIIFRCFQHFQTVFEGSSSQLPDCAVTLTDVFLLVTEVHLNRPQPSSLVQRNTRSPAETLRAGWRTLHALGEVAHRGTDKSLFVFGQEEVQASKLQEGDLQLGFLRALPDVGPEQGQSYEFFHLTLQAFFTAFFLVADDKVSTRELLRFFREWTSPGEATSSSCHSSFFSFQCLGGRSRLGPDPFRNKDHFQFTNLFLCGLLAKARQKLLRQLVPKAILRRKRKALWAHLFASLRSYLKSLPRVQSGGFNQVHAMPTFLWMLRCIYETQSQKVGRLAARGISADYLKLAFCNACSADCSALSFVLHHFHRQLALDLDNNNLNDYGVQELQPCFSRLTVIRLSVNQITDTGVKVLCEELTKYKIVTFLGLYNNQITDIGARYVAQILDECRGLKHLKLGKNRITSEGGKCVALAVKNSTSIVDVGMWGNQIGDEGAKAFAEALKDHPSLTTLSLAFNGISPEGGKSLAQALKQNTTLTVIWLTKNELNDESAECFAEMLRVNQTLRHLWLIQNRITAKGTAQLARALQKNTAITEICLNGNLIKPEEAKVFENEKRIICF
Description: Antagonist activity at NOD1 in mouse BMDM cells assessed as decrease in phosphorylated RIP2 level at 0.1 to 1 uM incubated for 1 hr followed by C12-iE-DAP stimulation for 30 mins by Western blot analysis. It is filed as cell-based. Particulars: filed as antagonist, dose 0.1-1 µM, time 1.5 hrs.

The target of series [5] is T3, Nucleotide-binding oligomerization domain-containing protein 1 (Mus musculus). In words: Antagonist activity at NOD1 in mouse BMDM cells assessed as decrease in phosphorylated p65 level at 0.1 to 1 uM incubated for 1 hr followed by C12-iE-DAP stimulation for 30 mins by Western blot analysis. The settings on record: filed as antagonist, dose 0.1-1 µM, time 1.5 hrs. It is filed as cell-based.

Series [6] is described as follows: Anti-inflammatory activity in mouse BMDM cells assessed as decrease in TNF-alpha mRNA level at 0.1 uM pretreated for 1 hr followed by C12-iE-DAP stimulation for 2 hrs by RT-qPCR analysis relative to control. It is filed as functional. More on the design: scale not given: the % may be the effect or the level left. The settings on record: time 3 hrs. On the technique in general: Real-time PCR tracks product formation cycle by cycle.

Another series deals with AGS. In words: Anti-inflammatory activity in human AGS cells assessed as decrease in CXCL8 mRNA level at 1 uM pretreated for 1 hr followed by C12-iE-DAP stimulation for 2 hrs by RT-qPCR analysis. Particulars: time 3.0 hrs. It is filed as functional, cell-based.
Series [7] in a line: Clearance in C57BL/6 mouse at 2 mg/kg, iv by LC-MS/MS analysis. It is filed as ADME, organism-based. The settings on record: in vivo.
A short description of series [8]: Half life in C57BL/6 mouse at 20 mg/kg, po by LC-MS/MS analysis. It is filed as ADME, organism-based. Particulars: in vivo.
Series [9] can be described thus: AUC (infinity) in C57BL/6 mouse at 20 mg/kg, po by LC-MS/MS analysis. The settings on record: in vivo. It is filed as ADME, organism-based.
Series [10] relates to Mus musculus. In words: Anti-inflammatory activity in C57BL/6 mouse assessed as inhibition of serum keratinocyte chemoattractant level pretreated orally with compound for 15 mins followed by C12-iE-DAP administration measured after 2 hrs by ELISA. It is filed as functional, organism-based. The settings on record: dose 12.5-50 mg/kg, route po, time 135.0 min. Background: An ELISA detects its analyte on a solid surface through an enzyme-linked reagent.

The subject of series [11] is Mus musculus. In words: Anti-inflammatory activity in C57BL/6 mouse model of Helicobacter pylori-induced gastric inflammation assessed as inhibition in gastric keratinocyte chemoattractant level pretreated orally with compound upto 24 hrs followed by infection of Helicobacter pylori measured upto 72 hrs. It is filed as functional, organism-based. The settings on record: dose 12.5-50 mg/kg, route po, time <= 96.0 hrs.

Structures are written as SMILES. Activity calls are given as the source filed them. The calls are words filed in the database; no cut-off is given here.

Regarding `CS(=O)(=O)c1ccc2nc(Cl)n(-c3ccc(Cl)c(NS(=O)(=O)c4c(F)cccc4F)c3)c(=O)c2c1`, the Activity entry in [1] is “Dose-dependent-effect”; in series [6], about 100%. Also, the IC50 in [2] is 0.8 nM. The inhibition entry in series [3], in series [4] and in series [5] was “Active” throughout. For the same compound, in the series on AGS, the outcome was Active. For the same compound, the clearance in series [7] is 474 mL/min/kg. Further, in series [8], the half-life was 3.15 h. Moreover, the AUC(0-inf) in series [9] worked out at 35.9 ng·h/mL. Moreover, the inhibition entry in the series on Mus musculus [10] was “Dose-dependent-effect”; with Mus musculus [11], “Dose-dependent-effect; Exhibited Superior Efficacy Compared To Compound C”.

In general, IC50 refers to the concentration that inhibits the measured activity by half. As a reminder, the clearance is the volume of plasma or blood freed of the substance per unit of time. As a reminder, the half-life is how long it takes for the measured level to halve. A word on the AUC(0-inf): it is the area under the concentration-time curve extrapolated to infinity.
